Target: Serine/threonine-protein kinase PLK3 (Homo sapiens) (UniProt Q9H4B4)
Experiment: PLK3 kinase inhibitors, dose response, biochemical, Z'-LYTE FRET, direct format, human (AID 1671358)
Conditions: Z'-LYTE FRET kinase assay, PLK3 phosphorylation

Sequence of Serine/threonine-protein kinase PLK3 (Homo sapiens) (Q9H4B4 whole entry, looked up): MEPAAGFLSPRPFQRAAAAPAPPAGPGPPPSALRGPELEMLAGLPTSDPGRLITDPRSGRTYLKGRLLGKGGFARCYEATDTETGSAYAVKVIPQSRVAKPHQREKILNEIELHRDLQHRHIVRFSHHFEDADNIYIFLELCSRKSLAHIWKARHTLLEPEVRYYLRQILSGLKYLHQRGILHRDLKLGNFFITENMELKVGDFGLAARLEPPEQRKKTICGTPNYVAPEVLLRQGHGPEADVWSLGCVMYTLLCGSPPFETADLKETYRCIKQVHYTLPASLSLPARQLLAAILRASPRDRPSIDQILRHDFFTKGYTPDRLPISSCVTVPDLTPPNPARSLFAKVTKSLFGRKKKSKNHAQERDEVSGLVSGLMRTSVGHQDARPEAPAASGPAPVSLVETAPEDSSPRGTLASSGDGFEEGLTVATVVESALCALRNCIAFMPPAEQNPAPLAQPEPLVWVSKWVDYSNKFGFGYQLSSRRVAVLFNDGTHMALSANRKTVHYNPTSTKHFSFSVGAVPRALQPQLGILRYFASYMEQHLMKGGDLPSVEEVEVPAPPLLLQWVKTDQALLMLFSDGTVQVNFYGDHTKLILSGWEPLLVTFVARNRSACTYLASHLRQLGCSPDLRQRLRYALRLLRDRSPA

IC50: 1.85 µM
SMILES: Brc1c(Br)c(Br)c2n[nH]nc2c1Br
